Source: ChEMBL document CHEMBL3797068, “eCF309: a potent, selective and cell-permeable mTOR inhibitor” (Medchemcomm, 2016)
Active and inactive are the calls of the source. The calls are words filed in the database; no cut-off is given here.

What was measured:
[1] = molecular target: Serine/threonine-protein kinase mTOR (Homo sapiens, UniProt P42345); experiment: Inhibition of human mTOR at 10 uM by kinome profiling method
[2] = molecular target: T1, Phosphatidylinositol 4,5-bisphosphate 3-kinase catalytic subunit delta isoform (Homo sapiens, UniProt O00329); experiment: Inhibition of PI3Kdelta (unknown origin) using (poly [Glu, Tyr] 4:1) as substrate assessed as incorporation of 33P in substrate by [gamma33P] ATP-based kinase assay
T1 sequence (O00329 whole entry): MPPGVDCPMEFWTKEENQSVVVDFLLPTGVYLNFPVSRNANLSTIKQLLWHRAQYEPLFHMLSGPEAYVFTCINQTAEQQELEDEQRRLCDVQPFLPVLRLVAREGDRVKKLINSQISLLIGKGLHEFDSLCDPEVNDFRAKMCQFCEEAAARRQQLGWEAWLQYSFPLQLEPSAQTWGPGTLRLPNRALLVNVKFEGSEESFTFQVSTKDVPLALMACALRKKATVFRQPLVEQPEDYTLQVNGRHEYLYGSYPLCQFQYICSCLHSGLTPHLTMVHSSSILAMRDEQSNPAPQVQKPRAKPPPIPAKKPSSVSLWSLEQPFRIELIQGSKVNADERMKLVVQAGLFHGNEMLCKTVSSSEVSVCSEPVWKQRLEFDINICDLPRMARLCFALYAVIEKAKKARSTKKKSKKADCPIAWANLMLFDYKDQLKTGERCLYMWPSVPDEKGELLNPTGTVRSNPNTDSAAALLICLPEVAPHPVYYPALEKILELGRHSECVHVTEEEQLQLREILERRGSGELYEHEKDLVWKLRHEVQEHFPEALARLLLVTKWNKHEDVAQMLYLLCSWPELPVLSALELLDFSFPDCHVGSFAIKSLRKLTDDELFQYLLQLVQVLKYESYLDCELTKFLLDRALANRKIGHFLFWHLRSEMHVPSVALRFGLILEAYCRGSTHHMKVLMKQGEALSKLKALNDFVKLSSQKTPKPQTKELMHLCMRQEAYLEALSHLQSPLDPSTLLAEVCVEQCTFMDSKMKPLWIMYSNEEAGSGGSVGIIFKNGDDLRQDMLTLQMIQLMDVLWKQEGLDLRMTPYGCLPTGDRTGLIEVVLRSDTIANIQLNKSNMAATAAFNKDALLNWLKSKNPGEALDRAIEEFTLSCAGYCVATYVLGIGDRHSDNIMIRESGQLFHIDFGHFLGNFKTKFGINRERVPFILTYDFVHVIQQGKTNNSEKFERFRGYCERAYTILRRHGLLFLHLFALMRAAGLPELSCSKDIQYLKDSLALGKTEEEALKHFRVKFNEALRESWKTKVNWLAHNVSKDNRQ

[3] = molecular target: Tyrosine-protein kinase Fyn (Homo sapiens, UniProt P06241); experiment: Inhibition of human FYN using (poly [Glu, Tyr] 4:1) as substrate assessed as incorporation of 33P in substrate by [gamma33P] ATP-based kinase assay
[4] = molecular target: T2, Phosphatidylinositol 4,5-bisphosphate 3-kinase catalytic subunit gamma isoform (Homo sapiens, UniProt P48736); experiment: Inhibition of PI3Kgamma (unknown origin) using (poly [Glu, Tyr] 4:1) as substrate assessed as incorporation of 33P in substrate by [gamma33P] ATP-based kinase assay
[5] = molecular target: T1, Phosphatidylinositol 4,5-bisphosphate 3-kinase catalytic subunit delta isoform; experiment: Inhibition of PI3Kdelta (unknown origin) using PIP2 as substrate by HTRF assay
[6] = Cell cycle arrest in human PC3 cells assessed as increase in G0/G1 population after 24 hrs by Hoechst 33342 staining-based fluorescence analysis; assay type: functional; settings: PC-3
[7] = molecular target: T3, DNA-dependent protein kinase catalytic subunit (Homo sapiens, UniProt P78527); experiment: Inhibition of human DNA-PK at 10 uM by kinome profiling method
[8] = molecular target: Proto-oncogene tyrosine-protein kinase receptor Ret (Homo sapiens, UniProt P07949); experiment: Inhibition of human RET using (poly [Glu, Tyr] 4:1) as substrate assessed as incorporation of 33P in substrate by [gamma33P] ATP-based kinase assay
[9] = molecular target: Tyrosine-protein kinase ABL1 (Homo sapiens, UniProt P00519); experiment: Inhibition of human ABL using (poly [Glu, Tyr] 4:1) as substrate assessed as incorporation of 33P in substrate by [gamma33P] ATP-based kinase assay
[10] = molecular target: T4, mTORC1 (Homo sapiens) (UniProt P42345+Q8N122+Q9BVC4); experiment: Inhibition of mTORC1 in human MCF7 cells assessed as reduction in phosphorylated S6 at 30 nM preincubated for 30 mins followed by serum stimulation for 1 hr by Western blot analysis; assay type: cell-based
[11] = tested on: MCF7; experiment: Cell cycle arrest in human MCF7 cells assessed as increase in G0/G1 population after 24 hrs by Hoechst 33342 staining-based fluorescence analysis; assay type: functional
[12] = tested on: MDA-MB-231; experiment: Cell cycle arrest in human MDA-MB-231 cells assessed as increase in G0/G1 population after 24 hrs by Hoechst 33342 staining-based fluorescence analysis; assay type: functional
[13] = molecular target: T4, mTORC1 (Homo sapiens); experiment: Inhibition of mTORC1 in human MCF7 cells assessed as reduction in phosphorylated P70S6K at 30 nM preincubated for 30 mins followed by serum stimulation for 1 hr by Western blot analysis; assay type: cell-based
[14] = molecular target: T2, Phosphatidylinositol 4,5-bisphosphate 3-kinase catalytic subunit gamma isoform; experiment: Inhibition of PI3Kgamma (unknown origin) using PIP2 as substrate by HTRF assay
[15] = molecular target: T5, Phosphatidylinositol 4,5-bisphosphate 3-kinase catalytic subunit alpha isoform (Homo sapiens, UniProt P42336); experiment: Inhibition of PI3Kalpha (unknown origin) using (poly [Glu, Tyr] 4:1) as substrate assessed as incorporation of 33P in substrate by [gamma33P] ATP-based kinase assay
[16] = molecular target: T4, mTORC1 (Homo sapiens); experiment: Inhibition of mTORC1 in human MCF7 cells assessed as reduction in phosphorylated P70S6K preincubated for 30 mins followed by serum stimulation for 1 hr by Western blot analysis; assay type: cell-based
[17] = molecular target: T5, Phosphatidylinositol 4,5-bisphosphate 3-kinase catalytic subunit alpha isoform; experiment: Inhibition of PI3Kalpha (unknown origin) using PIP2 as substrate by HTRF assay
[18] = molecular target: Platelet-derived growth factor receptor alpha (Homo sapiens, UniProt P16234); experiment: Inhibition of human PDGFRalpha using (poly [Glu, Tyr] 4:1) as substrate assessed as incorporation of 33P in substrate by [gamma33P] ATP-based kinase assay
[19] = molecular target: T2, Phosphatidylinositol 4,5-bisphosphate 3-kinase catalytic subunit gamma isoform; experiment: Inhibition of human PI3Kgamma at 10 uM by kinome profiling method
[20] = tested on: MCF7; experiment: Inhibition of mTORC2 in human MCF7 cells assessed as reduction in phosphorylated AKT level preincubated for 30 mins followed by serum stimulation for 1 hr by Western blot analysis; assay type: cell-based
[21] = molecular target: Mast/stem cell growth factor receptor Kit (Homo sapiens, UniProt P10721); experiment: Inhibition of human KIT using (poly [Glu, Tyr] 4:1) as substrate assessed as incorporation of 33P in substrate by [gamma33P] ATP-based kinase assay
[22] = tested on: MCF7; experiment: Cytotoxicity against human MCF7 cells after 5 days by Presto blue reagent-based fluorescence analysis; assay type: functional, cell-based; settings: for EC50: MCF7, 120 h
[23] = tested on: MCF7; experiment: Inhibition of mTORC2 in human MCF7 cells assessed as reduction in phosphorylated AKT level at 30 nM preincubated for 30 mins followed by serum stimulation for 1 hr by Western blot analysis; assay type: cell-based
[24] = tested on: MDA-MB-231; experiment: Cytotoxicity against human MDA-MB-231 cells after 5 days by Presto blue reagent-based spectrofluorometric analysis; assay type: functional, cell-based; settings: MDA-MB-231, 120 h
[25] = molecular target: T3, DNA-dependent protein kinase catalytic subunit; experiment: Inhibition of human DNA-PK using (poly [Glu, Tyr] 4:1) as substrate assessed as incorporation of 33P in substrate by [gamma33P] ATP-based kinase assay
[26] = molecular target: T6, Epithelial discoidin domain-containing receptor 1 (Homo sapiens, UniProt Q08345); experiment: Inhibition of human DDR1 at 10 uM by kinome profiling method
[27] = molecular target: T5, Phosphatidylinositol 4,5-bisphosphate 3-kinase catalytic subunit alpha isoform; experiment: Inhibition of human PI3Kalpha at 10 uM by kinome profiling method
[28] = Cytotoxicity against human PC3 cells after 5 days by Presto blue reagent-based spectrofluorometric analysis; assay type: functional, cell-based; settings: PC-3, 120 h
[29] = molecular target: T4, mTORC1 (Homo sapiens); experiment: Inhibition of mTORC1 in human MCF7 cells assessed as reduction in phosphorylated S6 preincubated for 30 mins followed by serum stimulation for 1 hr by Western blot analysis; assay type: cell-based
[30] = molecular target: T6, Epithelial discoidin domain-containing receptor 1; experiment: Inhibition of human DDR1 using (poly [Glu, Tyr] 4:1) as substrate assessed as incorporation of 33P in substrate by [gamma33P] ATP-based kinase assay
[31] = molecular target: Tyrosine-protein kinase Blk (Homo sapiens, UniProt P51451); experiment: Inhibition of human BLK using (poly [Glu, Tyr] 4:1) as substrate assessed as incorporation of 33P in substrate by [gamma33P] ATP-based kinase assay
[32] = molecular target: T7, Phosphatidylinositol 4,5-bisphosphate 3-kinase catalytic subunit beta isoform (Homo sapiens, UniProt P42338); experiment: Inhibition of PI3Kbeta (unknown origin) using (poly [Glu, Tyr] 4:1) as substrate assessed as incorporation of 33P in substrate by [gamma33P] ATP-based kinase assay
[33] = molecular target: T7, Phosphatidylinositol 4,5-bisphosphate 3-kinase catalytic subunit beta isoform; experiment: Inhibition of PI3Kbeta (unknown origin) using PIP2 as substrate by HTRF assay
[34] = molecular target: Proto-oncogene tyrosine-protein kinase Src (Homo sapiens, UniProt P12931); experiment: Inhibition of human SRC using (poly [Glu, Tyr] 4:1) as substrate assessed as incorporation of 33P in substrate by [gamma33P] ATP-based kinase assay
[35] = molecular target: Tyrosine-protein kinase Yes (Homo sapiens, UniProt P07947); experiment: Inhibition of human YES using (poly [Glu, Tyr] 4:1) as substrate assessed as incorporation of 33P in substrate by [gamma33P] ATP-based kinase assay
[36] = tested on: MCF7; experiment: Cytotoxicity against human MCF7 cells assessed as cell viability at 1000 nM after 5 days by Presto blue reagent-based spectrofluorometric analysis; assay type: functional; settings: MCF7, 120 h, read-out: Activity

T5 sequence (P42336 whole entry, canonical isoform): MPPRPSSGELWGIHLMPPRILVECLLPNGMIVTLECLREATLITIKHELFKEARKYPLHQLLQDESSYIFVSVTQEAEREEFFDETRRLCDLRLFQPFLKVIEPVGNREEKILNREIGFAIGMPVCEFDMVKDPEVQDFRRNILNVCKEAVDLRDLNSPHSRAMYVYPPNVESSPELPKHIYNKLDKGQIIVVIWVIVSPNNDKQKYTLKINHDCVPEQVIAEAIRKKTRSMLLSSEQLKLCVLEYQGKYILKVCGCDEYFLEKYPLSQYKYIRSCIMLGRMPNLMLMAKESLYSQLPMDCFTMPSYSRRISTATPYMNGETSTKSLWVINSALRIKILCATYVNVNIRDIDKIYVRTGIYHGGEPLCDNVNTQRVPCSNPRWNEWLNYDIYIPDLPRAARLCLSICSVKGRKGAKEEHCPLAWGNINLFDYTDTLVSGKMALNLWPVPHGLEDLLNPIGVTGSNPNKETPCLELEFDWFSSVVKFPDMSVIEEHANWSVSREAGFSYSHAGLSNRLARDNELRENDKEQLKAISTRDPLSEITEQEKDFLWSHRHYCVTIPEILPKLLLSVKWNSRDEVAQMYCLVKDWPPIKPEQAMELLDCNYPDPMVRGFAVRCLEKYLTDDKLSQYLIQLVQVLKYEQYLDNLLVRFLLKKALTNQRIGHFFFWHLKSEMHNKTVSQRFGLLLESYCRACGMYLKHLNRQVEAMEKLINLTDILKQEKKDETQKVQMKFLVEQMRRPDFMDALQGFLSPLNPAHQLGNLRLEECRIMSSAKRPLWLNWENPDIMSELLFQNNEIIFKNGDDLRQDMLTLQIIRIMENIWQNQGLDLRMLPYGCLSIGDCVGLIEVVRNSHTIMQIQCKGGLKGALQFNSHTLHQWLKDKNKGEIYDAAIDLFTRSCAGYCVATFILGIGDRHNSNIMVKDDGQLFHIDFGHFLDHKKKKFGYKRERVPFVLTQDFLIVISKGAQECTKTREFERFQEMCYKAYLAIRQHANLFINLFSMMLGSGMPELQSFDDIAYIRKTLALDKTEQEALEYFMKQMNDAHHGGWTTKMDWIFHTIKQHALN
T4 sequence (Q8N122 whole entry, looked up, other chains not shown): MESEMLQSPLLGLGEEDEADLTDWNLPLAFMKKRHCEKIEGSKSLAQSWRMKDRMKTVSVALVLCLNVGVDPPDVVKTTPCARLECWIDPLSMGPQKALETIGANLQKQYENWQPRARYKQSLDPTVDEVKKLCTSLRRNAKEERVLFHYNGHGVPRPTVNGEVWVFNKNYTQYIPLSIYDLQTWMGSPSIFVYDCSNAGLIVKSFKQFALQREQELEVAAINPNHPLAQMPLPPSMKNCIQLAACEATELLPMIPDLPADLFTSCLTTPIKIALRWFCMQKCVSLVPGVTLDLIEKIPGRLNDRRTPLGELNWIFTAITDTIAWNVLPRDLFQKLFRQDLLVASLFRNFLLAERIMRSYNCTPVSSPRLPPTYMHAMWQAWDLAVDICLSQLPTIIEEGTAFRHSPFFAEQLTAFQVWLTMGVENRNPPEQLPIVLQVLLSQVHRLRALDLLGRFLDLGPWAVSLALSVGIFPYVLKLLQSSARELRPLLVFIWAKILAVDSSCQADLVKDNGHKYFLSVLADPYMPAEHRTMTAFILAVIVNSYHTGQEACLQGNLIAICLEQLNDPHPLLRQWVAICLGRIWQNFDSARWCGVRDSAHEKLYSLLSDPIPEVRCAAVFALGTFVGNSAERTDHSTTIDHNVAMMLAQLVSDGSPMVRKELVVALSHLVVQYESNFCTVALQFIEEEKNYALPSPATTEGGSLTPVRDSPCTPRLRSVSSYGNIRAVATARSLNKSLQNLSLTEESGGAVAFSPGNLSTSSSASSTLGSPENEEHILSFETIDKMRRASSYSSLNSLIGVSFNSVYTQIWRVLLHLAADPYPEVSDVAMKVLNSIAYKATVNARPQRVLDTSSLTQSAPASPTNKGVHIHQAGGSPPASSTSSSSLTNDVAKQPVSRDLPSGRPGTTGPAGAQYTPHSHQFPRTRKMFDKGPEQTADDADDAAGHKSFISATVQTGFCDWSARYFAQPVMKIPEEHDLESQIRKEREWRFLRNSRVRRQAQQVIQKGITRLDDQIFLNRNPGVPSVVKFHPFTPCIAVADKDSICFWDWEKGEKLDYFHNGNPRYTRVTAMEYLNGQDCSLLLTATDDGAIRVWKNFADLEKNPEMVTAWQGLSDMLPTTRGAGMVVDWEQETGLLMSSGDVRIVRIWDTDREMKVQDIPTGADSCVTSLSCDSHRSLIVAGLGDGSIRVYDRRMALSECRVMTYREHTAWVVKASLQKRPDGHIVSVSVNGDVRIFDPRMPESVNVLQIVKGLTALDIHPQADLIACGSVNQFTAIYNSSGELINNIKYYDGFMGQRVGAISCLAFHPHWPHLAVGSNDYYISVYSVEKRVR
T4 sequence (Q9BVC4 whole entry, looked up, other chains not shown): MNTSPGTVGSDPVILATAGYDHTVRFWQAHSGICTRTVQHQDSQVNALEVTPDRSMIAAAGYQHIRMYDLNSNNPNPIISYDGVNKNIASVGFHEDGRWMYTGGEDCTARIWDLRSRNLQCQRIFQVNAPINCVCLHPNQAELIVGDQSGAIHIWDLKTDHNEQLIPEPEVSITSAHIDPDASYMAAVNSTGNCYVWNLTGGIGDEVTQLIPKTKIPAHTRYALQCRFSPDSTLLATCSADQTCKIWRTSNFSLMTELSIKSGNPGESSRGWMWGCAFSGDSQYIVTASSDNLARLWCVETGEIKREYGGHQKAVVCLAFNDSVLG
T6 sequence (Q08345 whole entry, the tested form may be a part, canonical isoform): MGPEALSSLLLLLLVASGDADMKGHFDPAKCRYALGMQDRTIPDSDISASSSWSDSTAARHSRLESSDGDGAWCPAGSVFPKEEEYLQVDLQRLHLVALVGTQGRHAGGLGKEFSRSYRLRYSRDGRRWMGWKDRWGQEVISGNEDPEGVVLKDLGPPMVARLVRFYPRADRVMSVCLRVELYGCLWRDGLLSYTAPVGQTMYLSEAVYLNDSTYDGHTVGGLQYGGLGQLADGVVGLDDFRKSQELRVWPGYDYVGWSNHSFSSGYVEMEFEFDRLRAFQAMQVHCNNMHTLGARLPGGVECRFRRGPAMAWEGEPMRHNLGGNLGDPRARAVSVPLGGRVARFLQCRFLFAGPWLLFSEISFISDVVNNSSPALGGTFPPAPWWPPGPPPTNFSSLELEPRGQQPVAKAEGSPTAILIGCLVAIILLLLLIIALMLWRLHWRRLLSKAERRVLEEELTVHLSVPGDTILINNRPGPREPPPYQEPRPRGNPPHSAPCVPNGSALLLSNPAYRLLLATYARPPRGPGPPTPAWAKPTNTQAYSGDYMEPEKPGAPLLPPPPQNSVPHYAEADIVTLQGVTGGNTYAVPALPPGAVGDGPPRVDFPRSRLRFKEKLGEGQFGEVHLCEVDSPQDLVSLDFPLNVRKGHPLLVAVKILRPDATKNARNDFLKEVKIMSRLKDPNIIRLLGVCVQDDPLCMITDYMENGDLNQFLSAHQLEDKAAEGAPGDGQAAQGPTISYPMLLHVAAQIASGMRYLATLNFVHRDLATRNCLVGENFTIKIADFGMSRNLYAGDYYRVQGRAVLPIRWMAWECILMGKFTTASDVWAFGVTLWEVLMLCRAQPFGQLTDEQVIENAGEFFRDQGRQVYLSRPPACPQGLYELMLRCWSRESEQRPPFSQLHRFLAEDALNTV
Sequence of Tyrosine-protein kinase Blk (P51451 whole entry, canonical isoform): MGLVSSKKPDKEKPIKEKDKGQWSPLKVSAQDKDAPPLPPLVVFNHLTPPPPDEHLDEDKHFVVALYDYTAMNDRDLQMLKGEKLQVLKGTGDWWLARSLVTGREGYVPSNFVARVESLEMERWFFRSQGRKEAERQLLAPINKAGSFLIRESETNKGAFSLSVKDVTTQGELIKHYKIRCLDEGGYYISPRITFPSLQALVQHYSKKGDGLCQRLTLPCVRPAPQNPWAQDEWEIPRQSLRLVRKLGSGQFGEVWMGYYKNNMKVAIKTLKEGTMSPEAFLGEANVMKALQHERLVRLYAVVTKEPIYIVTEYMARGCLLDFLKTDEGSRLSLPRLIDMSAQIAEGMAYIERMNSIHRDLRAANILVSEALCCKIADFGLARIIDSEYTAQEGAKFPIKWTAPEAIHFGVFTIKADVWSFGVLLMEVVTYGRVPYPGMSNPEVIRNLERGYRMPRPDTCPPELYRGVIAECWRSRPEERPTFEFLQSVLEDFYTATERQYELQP
Sequence of Proto-oncogene tyrosine-protein kinase Src (P12931 2-536 limits assumed): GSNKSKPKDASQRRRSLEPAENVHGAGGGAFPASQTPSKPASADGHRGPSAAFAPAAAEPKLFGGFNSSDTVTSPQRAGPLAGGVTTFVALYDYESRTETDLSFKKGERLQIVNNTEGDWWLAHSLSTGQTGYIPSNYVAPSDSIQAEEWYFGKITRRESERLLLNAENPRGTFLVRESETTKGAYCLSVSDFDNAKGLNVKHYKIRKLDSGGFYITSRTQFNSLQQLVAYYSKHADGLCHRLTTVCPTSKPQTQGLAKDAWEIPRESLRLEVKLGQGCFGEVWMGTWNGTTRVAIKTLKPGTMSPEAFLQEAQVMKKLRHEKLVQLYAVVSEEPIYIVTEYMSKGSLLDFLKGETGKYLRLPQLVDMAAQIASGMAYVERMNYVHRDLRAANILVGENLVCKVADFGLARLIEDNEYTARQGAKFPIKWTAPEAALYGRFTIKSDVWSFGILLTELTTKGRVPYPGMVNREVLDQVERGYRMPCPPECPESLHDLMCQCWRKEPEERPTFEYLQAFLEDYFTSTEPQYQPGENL

Structure (SMILES): CCOC(Cn1nc(-c2ccc3oc(N)nc3c2)c2c(N)ncnc21)OCC
- inhibition [1]: 99%
- IC50 [2]: 1840 nM
- IC50 [3]: > 100 µM
- IC50 [4]: 1340 nM
- IC50 [5]: 1840 nM
- Activity [6]: Active
- inhibition [7]: 90%
- IC50 [8]: > 100 µM
- IC50 [9]: > 100 µM
- inhibition [10]: 100%
- Activity [11]: Active
- Activity [12]: Active
- inhibition [13]: 100%
- IC50 [14]: 1340 nM
- IC50 [15]: 981 nM
- inhibition [16]: Dose-dependent effect
- IC50 [17]: 981 nM
- IC50 [18]: > 100 µM
- inhibition [19]: 85%
- inhibition [20]: Dose-dependent effect
- IC50 [21]: > 100 µM
- EC50 [22]: 8 nM
- inhibition [23]: 100%
- EC50 [24]: 72 nM
- IC50 [25]: 320 nM
- inhibition [26]: 77%
- inhibition [27]: 65%
- EC50 [28]: 37 nM
- inhibition [29]: Dose-dependent effect
- IC50 [30]: 2110 nM
- IC50 [31]: > 100 µM
- IC50 [32]: > 100 µM
- IC50 [33]: > 100 µM
- IC50 [34]: > 100 µM
- IC50 [35]: > 100 µM

Structure (SMILES): CCOC(Cn1nc(-c2cnc3[nH]ccc3c2)c2c(N)ncnc21)OCC
- IC50 [18]: > 100 µM
- IC50 [21]: > 100 µM
- Activity [22]: Active
- IC50 [31]: > 100 µM

Structure (SMILES): CO[C@H]1C[C@@H]2CC[C@@H](C)[C@@](O)(O2)C(=O)C(=O)N2CCCC[C@H]2C(=O)O[C@H]([C@H](C)C[C@@H]2CC[C@@H](OCCO)[C@H](OC)C2)CC(=O)[C@H](C)/C=C(\C)[C@@H](O)[C@@H](OC)C(=O)[C@H](C)C[C@H](C)/C=C/C=C/C=C/1C [EVEROLIMUS]
- EC50 [22]: < 1 nM
- viability at 1 µM [36]: 30%
